Data as given in paper PMC11110727, “Exploiting thiol-functionalized benzosiloxaboroles for achieving diverse substitution patterns – synthesis, characterization and biological evaluation of promising antibacterial agents” (RSC Medicinal Chemistry, 2024).
≈ marks a conversion by molar mass, not a printed value.

What was measured:
P. mirabilis ATCC 12453 = test: Antibacterial activity: MIC/MBC, MIC with PAβN, disc-diffusion; format: cell-based, Proteus mirabilis; conditions: Proteus mirabilis, ATCC12453; P. mirabilis ATCC 12453; read-out: MIC
Summary of the method: (§1)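 Strains were subcultured twice on TSA at 30 °C. They were then tested by disc diffusion (EUCAST/CLSI), by CLSI broth-microdilution MIC in Mueller–Hinton II broth and by CLSI MBC, with compounds in DMSO.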

C. krusei ATCC 6258 = test: Antifungal activity: MIC/MFC, disc-diffusion; format: cell-based; conditions: for diameter of inhibition zone: C. krusei ATCC 6258, (-) = zone not observed, paper discs 9 mm; for MIC: Pichia kudriavzevii, ATCC6258, read-out: MIC
Summary of the method: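 Yeast subcultured on Sabouraud dextrose agar 24–48 h at 30 °C before testing. Disc-diffusion and MIC per EUCAST and CLSI recommendations; MFC per CLSI. Compounds dissolved in DMSO.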

E. coli ATCC 25922 = test: Antibacterial activity: MIC/MBC, MIC with PAβN, disc-diffusion; format: cell-based, Escherichia coli; conditions: E. coli ATCC 25922; for MIC: Escherichia coli, ATCC25922, read-out: MIC
Summary of the method: as §1

K. pneumoniae ATCC 13883 = test: as above; format: cell-based, Klebsiella pneumoniae; conditions: K. pneumoniae ATCC 13883; for MIC: Klebsiella pneumoniae, ATCC13883, read-out: MIC
Summary of the method: as §1

A. baumannii ATCC 19606 = test: as above; format: cell-based, Acinetobacter baumannii; conditions: Acinetobacter baumannii, ATCC19606; A. baumannii ATCC 19606; read-out: MIC
Summary of the method: as §1

[1] = tested on: S. aureus ATCC 43300 MRSA; test: Antibacterial activity: MIC/MBC determination and disc-diffusion; format: cell-based; conditions: Staphylococcus aureus, S. aureus ATCC 43300 MRSA; for MIC: read-out: MIC; for MBC: read-out: MBC (first MBC where Eagle effect)
Summary of the method: (§2)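 Method: disc diffusion + MIC per EUCAST/CLSI; MBC/MFC per CLSI. Bacteria passaged twice on TSA, yeasts on Sabouraud agar, 24–48 h at 30 °C. Test compounds in DMSO.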

E. faecalis ATCC 29212 = test: as above; format: cell-based; conditions: Enterococcus faecalis, ATCC29212, E. faecalis ATCC 29212; for MIC: read-out: MIC
Summary of the method: as §2

[2] = tested on: S. epidermidis ATCC 12228; test: as above; format: cell-based; conditions: Staphylococcus epidermidis, ATCC12228, S. epidermidis ATCC 12228; for MIC: read-out: MIC
Summary of the method: as §2

E. faecium ATCC 6057 = test: as above; format: cell-based; conditions: Enterococcus faecium, ATCC6057; E. faecium ATCC 6057; read-out: MIC
Summary of the method: as §2

[3] = tested on: S. maltophilia ATCC 13637; test: Antibacterial activity: MIC/MBC, MIC with PAβN, disc-diffusion; format: cell-based, Stenotrophomonas maltophilia; conditions: Stenotrophomonas maltophilia, ATCC13637; S. maltophilia ATCC 13637; read-out: MIC
Summary of the method: as §1

[4] = PAβN 20 μg mL^−1, MHB + 1 mM MgSO4

## C[Si]1(C)OB(O)c2ccc(SC3CC(=O)N(c4ccc(F)cc4)C3=O)c(F)c21 (stereo not drawn) [Compound 15, 3-((7-Fluoro-3-hydroxy-1,1-dimethyl-1,3-dihydrobenzo[c][1,2,5]oxasilaborol-6-yl)thio)-1-(4-fluorophenyl)pyrrolidine-2,5-dione]
P. mirabilis ATCC 12453
  MIC: > 200 µg/mL
C. krusei ATCC 6258
  diameter of inhibition zone: 29 mm
  MIC: 25 µg/mL (≈ 59.6 µM)
E. coli ATCC 25922
  MIC: > 200 µg/mL
K. pneumoniae ATCC 13883
  MIC: > 200 µg/mL
A. baumannii ATCC 19606
  MIC: > 200 µg/mL
[1]
  MIC: 25 µg/mL (≈ 59.6 µM)
E. faecalis ATCC 29212
  MIC: 12.5 µg/mL (≈ 29.8 µM)
[2]
  MIC: 12.5 µg/mL (≈ 29.8 µM)
E. faecium ATCC 6057
  MIC: 25 µg/mL (≈ 59.6 µM)
[3]
  MIC: > 200 µg/mL

## C[Si]1(C)OB(O)c2cc(F)c(SC3CC(=O)N(c4ccc(Br)c(C(F)(F)F)c4)C3=O)c(F)c21 (stereo not drawn) [Compound 16, 1-(4-Bromo-3-(trifluoromethyl)phenyl)-3-((5,7-difluoro-3-hydroxy-1,1-dimethyl-1,3-dihydrobenzo[c][1,2,5]oxasilaborol-6-yl)thio)pyrrolidine-2,5-dione]
P. mirabilis ATCC 12453
  MIC: > 200 µg/mL
C. krusei ATCC 6258
  diameter of inhibition zone: 21 mm
  MIC: 25 µg/mL (≈ 44.2 µM)
E. coli ATCC 25922
  MIC: > 200 µg/mL
K. pneumoniae ATCC 13883
  MIC: > 200 µg/mL
A. baumannii ATCC 19606
  MIC: > 200 µg/mL
[1]
  MBC: 100 µg/mL (≈ 177 µM)
  MIC: 50 µg/mL (≈ 88.3 µM)
E. faecalis ATCC 29212
  MBC: 200 µg/mL (≈ 353 µM)
  MIC: 25 µg/mL (≈ 44.2 µM)
[2]
  MBC: 100 µg/mL (≈ 177 µM)
  MIC: 50 µg/mL (≈ 88.3 µM)
E. faecium ATCC 6057
  MIC: 50 µg/mL (≈ 88.3 µM)
[3]
  MIC: > 200 µg/mL

## C[Si]1(C)OB(O)c2ccc(SC3CC(=O)N(c4ccc(Br)c(C(F)(F)F)c4)C3=O)c(F)c21 (stereo not drawn) [Compound 17, 1-(4-Bromo-3-(trifluoromethyl)phenyl)-3-((7-fluoro-3-hydroxy-1,1-dimethyl-1,3-dihydrobenzo[c][1,2,5]oxasilaborol-6-yl)thio)pyrrolidine-2,5-dione]
P. mirabilis ATCC 12453
  MIC: > 200 µg/mL
C. krusei ATCC 6258
  diameter of inhibition zone: 18 mm
  MIC: 100 µg/mL (≈ 182 µM)
E. coli ATCC 25922
  MIC: > 200 µg/mL
K. pneumoniae ATCC 13883
  MIC: > 200 µg/mL
A. baumannii ATCC 19606
  MIC: > 200 µg/mL
[1]
  MBC: 100 µg/mL (≈ 182 µM)
  MIC: 25 µg/mL (≈ 45.6 µM)
E. faecalis ATCC 29212
  MBC: 200 µg/mL (≈ 365 µM)
  MIC: 12.5 µg/mL (≈ 22.8 µM)
[2]
  MBC: 100 µg/mL (≈ 182 µM)
  MIC: 12.5 µg/mL (≈ 22.8 µM)
E. faecium ATCC 6057
  MIC: 25 µg/mL (≈ 45.6 µM)
[3]
  MIC: > 200 µg/mL

## C[Si]1(C)OB(O)c2cc(F)c(SCCC(=O)OCCCCCC[n+]3ccccc3)c(F)c21 [Compound 18, 1-(6-((3-((5,7-difluoro-3-hydroxy-1,1-dimethyl-1,3-dihydrobenzo[c][1,2,5]oxasilaborol-6-yl)thio)propanoyl)oxy)hexyl)pyridin-1-ium trifluoromethanesulfonate]
P. mirabilis ATCC 12453
  MIC: > 400 µg/mL
C. krusei ATCC 6258
  MIC: > 400 µg/mL
E. coli ATCC 25922
  MIC: > 400 µg/mL
K. pneumoniae ATCC 13883
  MIC: > 400 µg/mL
A. baumannii ATCC 19606
  MIC: > 400 µg/mL
[1]
  MBC: 200 µg/mL
  MIC: 50 µg/mL
E. faecalis ATCC 29212
  MIC: 200 µg/mL
[2]
  MBC: 200 µg/mL
  MIC: 50 µg/mL
E. faecium ATCC 6057
  MIC: 100 µg/mL
[3]
  MIC: > 400 µg/mL

## C[Si]1(C)OB(O)c2ccc(SCCC(=O)OCCCCCC[n+]3ccccc3)c(F)c21 [Compound 19, 1-(6-((3-((7-Fluoro-3-hydroxy-1,1-dimethyl-1,3-dihydrobenzo[c][1,2,5]oxasilaborol-6-yl)thio)propanoyl)oxy)hexyl)pyridin-1-ium trifluoromethanesulfonate]
P. mirabilis ATCC 12453
  MIC: > 400 µg/mL
C. krusei ATCC 6258
  MIC: > 400 µg/mL
E. coli ATCC 25922
  MIC: > 400 µg/mL
K. pneumoniae ATCC 13883
  MIC: > 400 µg/mL
A. baumannii ATCC 19606
  MIC: > 400 µg/mL
[1]
  MBC: 100 µg/mL
  MIC: 25 µg/mL
E. faecalis ATCC 29212
  MBC: 400 µg/mL
  MIC: 100 µg/mL
[2]
  MBC: 100 µg/mL
  MIC: 25 µg/mL
E. faecium ATCC 6057
  MIC: 100 µg/mL
[3]
  MIC: > 400 µg/mL

## C[Si]1(C)OB(O)c2cc(F)c(SCCS(=O)(=O)c3ccccc3)c(F)c21 [Compound 20, 5,7-Difluoro-1,1-dimethyl-6-((2-(phenylsulfonyl)ethyl)thio)benzo[c][1,2,5]oxasilaborol-3(1H)-ol]
P. mirabilis ATCC 12453
  MIC: > 400 µg/mL
C. krusei ATCC 6258
  MIC: > 400 µg/mL
E. coli ATCC 25922; [4]
  -fold reduction of MIC in the presence of PAβN: 32 -fold
E. coli ATCC 25922
  MIC: > 400 µg/mL
K. pneumoniae ATCC 13883; [4]
  -fold reduction of MIC in the presence of PAβN: 4 -fold
K. pneumoniae ATCC 13883
  MIC: > 400 µg/mL
A. baumannii ATCC 19606
  MIC: > 400 µg/mL
[1]
  MBC: 200 µg/mL (≈ 483 µM)
  MIC: 6.25 µg/mL (≈ 15.1 µM)
E. faecalis ATCC 29212
  MIC: 100 µg/mL (≈ 241 µM)
[2]
  MBC: 400 µg/mL (≈ 965 µM)
  MIC: 25 µg/mL (≈ 60.3 µM)
E. faecium ATCC 6057
  MIC: 100 µg/mL (≈ 241 µM)
[3]
  MIC: > 400 µg/mL
